ChEMBL document CHEMBL1141900, “Synthesis and antibacterial activity of C2-fluoro, C6-carbamate ketolides, and their C9-oximes” (2005)
Converted amounts (≈) assume the structure as drawn.

Columns and labels:
Assay type in all cases: functional
[1] = system: Streptococcus pneumoniae; test: Minimum inhibitory concentration of the compound against erythromycin-susceptible Streptococcus pneumoniae was determined
[2] = system: Streptococcus pneumoniae; test: Minimum inhibitory concentration of the compound against 3 […] Streptococcus pneumoniae OC4051 with an erm(B)-ribosomal methylase-mediated resistance was determined
[3] = system: Haemophilus influenzae; test: Minimum inhibitory concentration of the compound against Haemophilus influenzae OC4882 was determined
[4] = system: Enterococcus faecalis; test: Minimum inhibitory concentration of the compound againstEnterococcus faecalis ATCC 51299 with an erm(B)-encoded ribosomal methylase was determined
[5] = system: Staphylococcus aureus; test: Minimum inhibitory concentration of the compound against erythromycin-susceptible Staphylococcus aureus Smith OC4172 was determined
[6] = system: Streptococcus pneumoniae; test: Minimum inhibitory concentration of the compound against 3 […] Streptococcus pneumoniae OC4421 with an mef(A) efflux-mediated resistance was determined

SMILES | MIC [1] [µg/mL] | MIC [2] [µg/mL] | MIC [3] [µg/mL] | MIC [4] [µg/mL] | MIC [5] [µg/mL] | MIC [6] [µg/mL]
CC[C@H]1OC(=O)[C@@](C)(F)C(=O)[C@H](C)[C@@H](O[C@@H]2O[C@H](C)C[C@H](N(C)C)[C@H]2O)[C@](C)(OC(=O)NC/C=C/c2ccc3ncccc3c2)C[C@@H](C)C(=O)[C@H](C)[C@H]2NC(=O)O[C@@]21C | 0.06 (≈ 0.0726 µM) | 0.06 (≈ 0.0726 µM) | 4 (≈ 4.84 µM) | 4 (≈ 4.84 µM) | 0.25 (≈ 0.302 µM) | 0.06 (≈ 0.0726 µM)
CC[C@H]1OC(=O)[C@@](C)(F)C(=O)[C@H](C)[C@@H](O[C@@H]2O[C@H](C)C[C@H](N(C)C)[C@H]2O)[C@](C)(OC(=O)NC/C=C/c2ccc(-c3cnccn3)cc2)C[C@@H](C)C(=O)[C@H](C)[C@H]2NC(=O)O[C@@]21C | 0.03 (≈ 0.0351 µM) | 0.06 (≈ 0.0703 µM) | 4 (≈ 4.68 µM) | 4 (≈ 4.68 µM) | 0.25 (≈ 0.293 µM) | 0.06 (≈ 0.0703 µM)
CC[C@H]1OC(=O)[C@@](C)(F)C(=O)[C@H](C)[C@@H](O[C@@H]2O[C@H](C)C[C@H](N(C)C)[C@H]2O)[C@](C)(OC(=O)NC/C=C/c2cn(-c3ncccn3)cn2)C[C@@H](C)C(=O)[C@H](C)[C@H]2NC(=O)O[C@@]21C | 0.03 (≈ 0.0355 µM) | 0.06 (≈ 0.0711 µM) | 8 (≈ 9.48 µM) | 8 (≈ 9.48 µM) | 0.12 (≈ 0.142 µM) | 0.25 (≈ 0.296 µM)
CC[C@H]1OC(=O)[C@@](C)(F)C(=O)[C@H](C)[C@@H](O[C@@H]2O[C@H](C)C[C@H](N(C)C)[C@H]2O)[C@](C)(OC(=O)NC/C=C/c2cncc(-c3ccccn3)c2)C[C@@H](C)C(=O)[C@H](C)[C@H]2NC(=O)O[C@@]21C | 0.03 (≈ 0.0351 µM) | 0.06 (≈ 0.0703 µM) | 8 (≈ 9.37 µM) | 4 (≈ 4.68 µM) | 0.25 (≈ 0.293 µM) | 0.12 (≈ 0.141 µM)
CC[C@H]1OC(=O)[C@@](C)(F)C(=O)[C@H](C)[C@@H](O[C@@H]2O[C@H](C)C[C@H](N(C)C)[C@H]2O)[C@](C)(OC(=O)NC/C=C/c2ccc(-c3cccnn3)cc2)C[C@@H](C)/C(=N\O)[C@H](C)[C@H]2NC(=O)O[C@@]21C | 0.03 (≈ 0.0345 µM) | 0.06 (≈ 0.069 µM) | 2 (≈ 2.3 µM) | > 4 | 0.5 (≈ 0.575 µM) | 0.25 (≈ 0.288 µM)
CC[C@H]1OC(=O)[C@@](C)(F)C(=O)[C@H](C)[C@@H](O[C@@H]2O[C@H](C)C[C@H](N(C)C)[C@H]2O)[C@](C)(OC(=O)NCCOCc2ccc(-c3ncccn3)cc2)C[C@@H](C)C(=O)[C@H](C)[C@H]2NC(=O)O[C@@]21C | 0.06 (≈ 0.0688 µM) | 0.12 (≈ 0.138 µM) | 8 (≈ 9.17 µM) | > 16 | 0.25 (≈ 0.287 µM) | 0.12 (≈ 0.138 µM)
CC[C@H]1OC(=O)[C@@](C)(F)C(=O)[C@H](C)[C@@H](O[C@@H]2O[C@H](C)C[C@H](N(C)C)[C@H]2O)[C@](C)(OC(N)=O)C[C@@H](C)/C(=N\O)[C@H](C)[C@H]2NC(=O)O[C@@]21C | 0.12 (≈ 0.178 µM) | 2 (≈ 2.96 µM) | 4 (≈ 5.93 µM) | > 16 | 1 (≈ 1.48 µM) | 2 (≈ 2.96 µM)
CC[C@H]1OC(=O)[C@@](C)(F)C(=O)[C@H](C)[C@@H](O[C@@H]2O[C@H](C)C[C@H](N(C)C)[C@H]2O)[C@](C)(OC(N)=O)C[C@@H](C)C(=O)[C@H](C)[C@H]2NC(=O)O[C@@]21C | 0.12 (≈ 0.182 µM) | > 16 | 8 (≈ 12.1 µM) | > 16 | 1 (≈ 1.52 µM) | 2 (≈ 3.03 µM)
CC[C@H]1OC(=O)[C@H](C)C(=O)[C@H](C)[C@@H](O[C@@H]2O[C@H](C)C[C@H](N(C)C)[C@H]2O)[C@](C)(OC)C[C@@H](C)C(=O)[C@H](C)[C@H]2N(CCCCn3cnc(-c4cccnc4)c3)C(=O)O[C@]12C [TELITHROMYCIN] | ≤ 0.015 | 0.06 (≈ 0.0739 µM) | 2 (≈ 2.46 µM) | 16 (≈ 19.7 µM) | 0.12 (≈ 0.148 µM) | 0.12 (≈ 0.148 µM)
CC[C@H]1OC(=O)[C@@](C)(F)C(=O)[C@H](C)[C@@H](O[C@@H]2O[C@H](C)C[C@H](N(C)C)[C@H]2O)[C@](C)(OC(=O)NC/C=C/c2ccc(-n3cccn3)cc2)C[C@@H](C)C(=O)[C@H](C)[C@H]2NC(=O)O[C@@]21C | 0.03 (≈ 0.0356 µM) | 0.12 (≈ 0.143 µM) | 8 (≈ 9.5 µM) | 8 (≈ 9.5 µM) | 0.25 (≈ 0.297 µM) | 0.5 (≈ 0.594 µM)
CC[C@H]1OC(=O)[C@@](C)(F)C(=O)[C@H](C)[C@@H](O[C@@H]2O[C@H](C)C[C@H](N(C)C)[C@H]2O)[C@](C)(OC(=O)NC/C=C/c2ccc(-c3ccccn3)cc2)C[C@@H](C)C(=O)[C@H](C)[C@H]2NC(=O)O[C@@]21C | 0.06 (≈ 0.0703 µM) | 0.06 (≈ 0.0703 µM) | 4 (≈ 4.69 µM) | 4 (≈ 4.69 µM) | 0.25 (≈ 0.293 µM) | 0.12 (≈ 0.141 µM)
CC[C@H]1OC(=O)[C@@](C)(F)C(=O)[C@H](C)[C@@H](O[C@@H]2O[C@H](C)C[C@H](N(C)C)[C@H]2O)[C@](C)(OC(=O)NC/C=C/c2cn(-c3cnccn3)cn2)C[C@@H](C)C(=O)[C@H](C)[C@H]2NC(=O)O[C@@]21C | 0.03 (≈ 0.0355 µM) | 0.06 (≈ 0.0711 µM) | 8 (≈ 9.48 µM) | 16 (≈ 19 µM) | 0.25 (≈ 0.296 µM) | 0.25 (≈ 0.296 µM)
